Data on 51 molecules can be found in KR20130112248A, “피라졸로피리미딘 유도체 화합물, 이를 포함하는 산화질소 생성 억제용 조성물 및 뇌신경 질환 예방 및 치료용 약학적 조성물” (한국과학기술연구원, priority 2012, dated 2013).

Each structure is given as a SMILES string.

In one assay the test system is NO production in BV-2 cells [NO 생성; BV-2 세포]. Kind of assay: Nitric oxide (NO) quantification (nitrite, Griess reaction) in LPS-activated BV-2 cells. The settings on record: 20 μM, LPS 0.2 ㎍/mL, 24 h co-treatment, nitrite by Griess at 540 nm, 1440 min. Type of assay: cell-based.
In the case of `CCCCNc1nc(NC(C)c2ccccc2)c2cnn(Cc3ccccc3)c2n1` (stereo not drawn) [24i, 1-벤질-N6-뷰틸-N4-(1-페닐에틸)-1H-피라졸로[3,4-d]피리미딘-4,6-디아민], the “NO (% of LPS)” value is 42±0.8 % of LPS.

Staying with this assay, now noted: Mus musculus, BV-2, 24 h, 20 μM, LPS 0.2 ㎍/mL, 24 h co-treatment, nitrite by Griess at 540 nm.
As for `CSc1nc(NC(C)c2ccccc2)c2cnn(Cc3ccccc3)c2n1` (stereo not drawn) [화합물 16x, 1-벤질-6-(메틸티오)-N-(1-페닐에틸)-1H-피라졸로[3,4-d]피리미딘-4-아민], the activity at 20 µM came to 34 ± 1.4%. Regarding `CCCCNc1nc(SC)nc2c1cnn2Cc1ccccc1` [화합물 16zg, 1-벤질-N-뷰틸-6-(메틸티오)-1H-피라졸로[3,4-d]피리미딘-4-아민], the activity at 20 µM came out at 55 ± 1.9%. Turning to `CSc1nc(Cl)c2cnn(CCOC3CCCCO3)c2n1` (stereo not drawn) [5c, 1-[2-(테트라하이드로피란-2-일옥시)에틸]-4-클로로-6-(메틸티오)피라졸로[3,4-d]피리미딘], the activity at 20 µM was determined as 49 ± 9%. With `COc1ccc(CNc2nc(S(C)(=O)=O)nc3c2cnn3-c2ccc(C)cc2)cc1` [화합물 23o, N-(4-메톡시벤질)-6-(메틸설포닐)-1-p-톨릴-1H-피라졸로[3,4-d]피리미딘-4-아민], the activity at 20 µM was found to be 30 ± 2.4%. For `CSc1nc(NCCc2ccccc2)c2cnn(Cc3ccccc3)c2n1` [화합물 16d, 1-벤질-4-(2-페닐에틸)아미노-6-(메틸티오)피라졸로[3,4-d]피리미딘], the activity at 20 µM amounted to 54 ± 1%. On the same count and under the same terms, the figure for `CSc1nc(NCc2ccccc2C)c2cnn(CCO)c2n1` [화합물 27g, 2-(4-(2-메틸벤질아미노)-6-(메틸티오)-1H-피라졸로[3,4-d]피리미딘-1-일)에탄올] is 82 ± 2.5%. Take `COc1ccccc1CNc1nc([S+](C)[O-])nc2c1cnn2-c1ccc(C)cc1` (stereo not drawn) [화합물 22g, N-(2-메톡시벤질)-6-(메틸설파이닐)-1-p-톨릴-1H-피라졸로[3,4-d]피리미딘-4-아민]: the activity at 20 µM is 42 ± 2.3%. Regarding `Cc1ccc(-n2ncc3c(NCc4ccccc4Cl)nc(S(C)(=O)=O)nc32)cc1` [화합물 23l, N-(2-클로로벤질)-6-(메틸설포닐)-1-p-톨릴-1H-피라졸로[3,4-d]피리미딘-4-아민], the activity at 20 µM is 30 ± 37.4%. In the case of `CSc1nc(Cl)c(C(=O)c2ccccc2)c(Cl)n1` [compound 29, 1-[(4,6-다이클로로-2-(메틸티오)피리미딘)-5-일]-페닐케톤], the activity at 20 µM turned out to be 35 ± 12%.

As for `C=CCn1ncc2c(NCc3ccccc3C)nc(SC)nc21` [화합물 13h, N-(2-메틸벤질)-1-알릴-6-(메틸티오)-1H-피라졸로[3,4-d]피리미딘-4-아민], the activity at 20 µM was 25 ± 0.3%. On the same count and under the same terms, the value for `CC(Nc1nc(S(C)(=O)=O)nc2c1cnn2-c1ccccc1)C1CCCCC1` (stereo not drawn) [화합물 23f, N-(1-사이클로헥실에틸)-6-(메틸설포닐)-1-페닐-1H-피라졸로[3,4-d]피리미딘-4-아민] was 23 ± 0.6%; that for `COc1ccccc1CCn1ncc2c(Cl)nc(SC)nc21` [5k, 1-(2-메톡시펜에틸)-4-클로로-6-(메틸티오)-1H-피라졸로[3,4-d]피리미딘] was 5 ± 62.9%; that for `CSc1nc(NCCO)c2cnn(C)c2n1` [12e, 1-메틸-4-(1-하이드록시에틸)아미노-6-(메틸티오)피라졸로[3,4-d]피리미딘] was 91 ± 2%.

`COc1cccc(CCn2ncc3c(NCc4ccc(C)cc4)nc(SC)nc32)c1` [화합물 18f, 1-(3-메톡시펜에틸)-N-(4-메틸벤질)-6-(메틸티오)-1H-피라졸로[3,4-d]피리미딘-4-아민]: the activity at 20 µM is 56 ± 3.1%. The same measure, in the same setting: the figure for `CSc1nc(NCc2ccc(C)cc2)c2cn[nH]c2n1` [6q, 4-(4-메틸벤질)아미노-6-(메틸티오)피라졸로[3,4-d]피리미딘] is 90 ± 15%. Same read-out and setting: the figure for `CSc1nc(NC(C)c2ccc(C)cc2)c2cnn(-c3ccc(C)cc3)c2n1` (stereo not drawn) [화합물 21i, 6-(메틸티오)-1-p-톨릴-N-(1-p-톨릴에틸)-1H-피라졸로[3,4-d]피리미딘-4-아민] is 57 ± 1%; for `CSc1nc(NC(C)(C)CO)c2cnn(CCNC(=O)OC(C)(C)C)c2n1` [화합물 14h, 2-(4-(1-하이드록시-2-메틸프로판-2-일아미노)-6-(메틸티오)-1H-피라졸로[3,4-d]피리미딘-1-일)에틸카바메이트] it is 78.9 ± 1.6%. On to `C=CCn1ncc2c(NCc3ccc(C)cc3)nc(SC)nc21` [화합물 13g, N-(4-메틸벤질)-1-알릴-6-(메틸티오)-1H-피라졸로[3,4-d]피리미딘-4-아민], for which the activity at 20 µM is 12.2 ± 3.8%. Take `CC(Nc1nc(S(C)(=O)=O)nc2c1cnn2Cc1ccccc1)C1CCCCC1` (stereo not drawn) [화합물 23t, 1-벤질-N-(1-사이클로헥실에틸)-6-(메틸설포닐)-1H-피라졸로[3,4-d]피리미딘-4-아민]: the activity at 20 µM stood at 42 ± 2.6%. Still for that read-out and setting: the value for `CSc1nc(NCc2ccccn2)c2cnn(-c3ccccc3)c2n1` [화합물 15j, 1-페닐-4-[(피리딘-2-일)메틸]아미노-6-(메틸티오)피라졸로[3,4-d]피리미딘] was 30 ± 14%. On to `CSc1nc(NCc2ccc(Cl)cc2)c2cnn(Cc3ccccc3)c2n1` [화합물 16zd, N-(4-클로로벤질)-1-벤질-6-(메틸티오)-1H-피라졸로[3,4-d]피리미딘-4-아민], for which the activity at 20 µM was 46 ± 1.9%. The same measure, in the same setting: the figure for `COc1ccc(CNc2nc(SC)nc3c2cnn3-c2ccc(C)cc2)cc1` [화합물 21e, N-(4-메톡시벤질)-6-(메틸티오)-1-p-톨릴-1H-피라졸로[3,4-d]피리미딘-4-아민] is 39 ± 3%; for `CSc1nc(Sc2ccc(Cl)cc2)c2cnn(Cc3ccccc3)c2n1` [화합물 16r, 4-(4-클로로페닐티오)-1-벤질-6-(메틸티오)-1H-피라졸로[3,4-d]피리미딘] it is 20 ± 1.9%. Still for that read-out and setting: the value for `COc1ccccc1CCn1ncc2c(NCc3ccc(F)cc3)nc(SC)nc21` [화합물 19d, 1-(2-메톡시펜에틸)-N-(4-플루오로벤질)-6-(메틸티오)-1H-피라졸로[3,4-d]피리미딘-4-아민] was 40 ± 1.1%; that for `C=CCNc1nc(SC)nc2c1cnn2CCc1cccc(OC)c1` [화합물 18i, 1-(3-메톡시펜에틸)-N-알릴-6-(메틸티오)-1H-피라졸로[3,4-d]피리미딘-4-아민] was 78 ± 4.4%. The same measure, in the same setting: the figure for `CSc1nc(N2CCCCC2)c2cnn(-c3ccccc3)c2n1` [화합물 15m, 1-페닐-4-피페리디노-6-(메틸티오)피라졸로[3,4-d]피리미딘] is 92 ± 4%.

For `CSc1nc(NCc2ccccc2C)c2cnn(C)c2n1` [화합물 12l, 1-메틸-4-(2-메틸벤질)아미노-6-(메틸티오)피라졸로[3,4-d]피리미딘], the activity at 20 µM is 69%. For `COc1ccc([C@H](C)Nc2nc(SC)nc3c2cnn3-c2ccccc2)cc1` [화합물 15zc, N-((S)-1-(4-메톡시페닐)에틸)-6-(메틸티오))-1-페닐-1H-피라졸로[3,4-d]피리미딘-4-아민], the activity at 20 µM came to 42 ± 0.9%. Same read-out and setting: the value for `CSc1nc(N[C@H](C)c2ccccc2)c2cnn(C(C)(C)C)c2n1` [화합물 17b, (R)-1-t-뷰틸-4-(1-페닐에틸)아미노-6-(메틸티오)피라졸로[3,4-d]피리미딘] was 61 ± 1%; that for `CCCCNc1nc([S+](C)[O-])nc2c1cnn2-c1ccccc1` (stereo not drawn) [화합물 22d, N-뷰틸-6-(메틸설파이닐)-1-페닐-1H-피라졸로[3,4-d]피리미딘-4-아민] was 46 ± 8.3%. The same measure, in the same setting: the value for `COc1ccccc1CNc1nc(SC)nc2c1cnn2-c1ccc(F)cc1` [화합물 20b, N-(2-메톡시벤질)-1-(4-플루오로페닐)-6-(메틸티오)-1H-피라졸로[3,4-d]피리미딘-4-아민] was 48 ± 27.1%.

With `CSc1nc(NCCc2ccccc2)c2cnn(C)c2n1` [12g, 1-메틸-4-(2-페닐에틸)아미노-6-(메틸티오)피라졸로[3,4-d]피리미딘], the activity at 20 µM was 92 ± 1%. On the same count and under the same terms, the figure for `CSc1nc(NCc2ccccn2)c2cnn(CCNC(=O)OC(C)(C)C)c2n1` [화합물 14k, 2-(4-((피리딘-2-일)메틸아미노)-6-(메틸티오)-1H-피라졸로[3,4-d]피리미딘-1-일)에틸카바메이트] is 61 ± 0.8%; for `CSc1nc(Sc2ccc(F)cc2)c2cnn(Cc3ccccc3)c2n1` [화합물 16u, 4-(4-플루오로페닐티오)-1-벤질-6-(메틸티오)-1H-피라졸로[3,4-d]피리미딘] it is 28 ± 1.8%. Take `C=CCNc1nc(SC)nc2c1c(-c1ccccc1)nn2-c1ccccc1` [화합물 31g, 1-페닐-3-페닐-4-알릴아미노-6-(메틸티오)피라졸로[3,4-d]피리미딘]: the activity at 20 µM was found to be 71 ± 3%. On the same count and under the same terms, the value for `Cc1ccc(C(C)Nc2nc(S(C)(=O)=O)nc3c2cnn3-c2ccccc2)cc1` (stereo not drawn) [화합물 23g, 6-(메틸설포닐)-1-페닐-N-(1-p-톨릴에틸)-1H-피라졸로[3,4-d]피리미딘-4-아민] was 46 ± 3.9%. The same measure, in the same setting: the value for `COc1ccccc1CNc1nc(S(C)(=O)=O)nc2c1cnn2-c1ccccc1` [화합물 23c, N-(2-메톡시벤질)-6-(메틸설포닐)-1-페닐-1H-피라졸로[3,4-d]피리미딘-4-아민] was 41 ± 2.3%; that for `CCN(CC)c1nc(SC)nc2c1cnn2-c1ccccc1` [화합물 15w, 1-페닐-4-다이에틸아미노-6-(메틸티오)피라졸로[3,4-d]피리미딘] was 79 ± 3%; that for `COc1ccccc1CNc1nc(SC)nc2c1cnn2CCNC(=O)OC(C)(C)C` [화합물 14c, 1-(N-t-Boc-아미노에틸)-4-(2-메톡시벤질)아미노-6-(메틸티오)피라졸로[3,4-d]피리미딘] was 54 ± 5%. On the same count and under the same terms, the value for `CSc1nc(N[C@H](C)C2CCCCC2)c2cnn(-c3ccccc3)c2n1` [화합물 15r, (R)-1-페닐-4-(1-사이클로헥실에틸)아미노-6-(메틸티오)피라졸로[3,4-d]피리미딘] was 41 ± 1%; that for `CSc1nc(NCc2ccc(C)cc2)c2cnn(-c3ccc(F)cc3)c2n1` [화합물 20f, N-(4-메틸벤질)-1-(4-프루오로페닐)-6-(메틸티오)-1H-피라졸로[3,4-d]피리미딘-4-아민] was 62 ± 3.8%. For the molecule `CSc1nc(NCc2ccccn2)c2cnn(Cc3ccccc3)c2n1` [화합물 16zh, 1-벤질-6-(메틸티오)-N-((피리딘-2-일)메틸)-1H-피라졸로[3,4-d]피리미딘-4-아민], the activity at 20 µM is 53 ± 7.2%.

With `CCCCNc1nc(SC)nc2c1cnn2CCNC(=O)OC(C)(C)C` [화합물 14i, 2-(4-(뷰틸아미노)-6-(메틸티오)-1H-피라졸로[3,4-d]피리미딘-1-일)에틸카바메이트], the activity at 20 µM turned out to be 54.2 ± 2.3%.

Take `COc1cccc(CNc2nc(SC)nc3[nH]ncc23)c1` [6i, 4-(3-메톡시벤질)아미노-6-(메틸티오)피라졸로[3,4-d]피리미딘]: the activity at 20 µM was determined as 48 ± 10%. The same measure, in the same setting: the value for `CSc1nc(NC(C)(C)CO)c2cnn(C(C)(C)C)c2n1` [화합물 17o, 2-(1-t-뷰틸-6-(메틸티오)-1H-피라졸로[3,4-d]피리미딘-4-일아미노)-2-메틸프로판-1-올] was 73.6 ± 2.4%; that for `CSc1nc(NCc2ccccc2Cl)c2cnn(Cc3ccccc3)c2n1` [화합물 16zi, N-(2-클로로벤질)-1-벤질-6-(메틸티오)-1H-피라졸로[3,4-d]피리미딘-4-아민] was 39 ± 3.1%. The same measure, in the same setting: the value for `CSc1nc(NCCO)c2cnn(-c3ccccc3)c2n1` [화합물 15d, 1-페닐-4-(1-하이드록식에틸)아미노-6-(메틸티오)피라졸로[3,4-d]피리미딘] was 68 ± 7%.

Staying with this assay, now noted: Mus musculus, BV-2, 24 h, 30 μM, LPS 0.2 ㎍/mL, 24 h co-treatment, nitrite by Griess at 540 nm.
With `CSc1ncc2cn[nH]c2n1` [7a, 6-(메틸티오)피라졸로[3,4-d]피리미딘], the activity at 30 µM is 79 ± 1%. Still for that read-out and setting: the value for `COc1nc(SC)nc2[nH]ncc12` [10a, 4-메톡시-6-(메틸티오)피라졸로[3,4-d]피리미딘] was 91 ± 2.4%.

Still in this assay, the particulars now being: Mus musculus, BV-2, 24 h, 50 μM (printed in cell of the 30 μM column), LPS 0.2 ㎍/mL, 24 h co-treatment.
Take `CSc1nc(NCc2ccccc2)c2cn[nH]c2n1` [6a, 4-벤질아미노-6-(메틸티오)피라졸로[3,4-d]피리미딘]: the activity at 50 µM was 35 ± 4%.
